Measured values: US20230303577A1, “TEMOZOLOMIDE ANALOGS AND METHODS OF USE” (St. John's Cancer Institute, priority 2020, published 2023)
Like-named read-outs stand apart in the source and are kept apart here. Each block holds one molecule with its values, some of them ahead of it.

Legend:
P-gp = experiment: Bidirectional Caco-2 permeability / P-gp efflux assay; type: in vitro ADME; settings: human; for Papp A→B: read-out: Papp (AB) p-gp Inhibitor (−); for Papp B→A: read-out: Papp (BA) p-gp Inhibitor (−)
Method: Permeability of the compounds was evaluated in the bidirectional Caco-2 assay including identification of P-glycoprotein substrate (Pgp-mediated transport). Verapamil was used as a p-gp inhibitor. The apparent permeability (Papp) was calculated using the following equation:
Papp=VA/Area×Time×[drug]acc/[drug]initial,d
Permeability of the compounds was evaluated in the bidirectional Caco-2 assay as described in Example 11 (Table 15).

GBM8 = experiment: AlamarBlue cell viability, GBM8 patient-derived cell line; type: cell-based; settings: 72 h, read-out: IC50, 72 h
Method: (§1) The effect of selected compounds on glioma cells viability was determined. The cells were plated at 2000 cells/well in 96 well plates. The day after, cells were treated with various concentrations of temozolomide or VMY-TP analogs.

T98G cells = experiment: Cell Titer Glo viability of T98G cells with or without O6-BG pretreatment; type: cell-based; settings: Homo sapiens
Method: T98G cells, which express MGMT, were treated with TMZ or test compounds with or without 3, 6, or 24 hours of pretreatment with 100 μM of O^6-benzylguanine (O^6-BG; a pseudo-substrate of MGMT that quenches the cellular store of enzyme). T98G cell lysates were probed with anti-MGMT antibody and then with anti-a tubulin (FIG. 4). In a separate experiment, TMZ or test compounds were added to T98G cells with or without 5-6 hours of pretreatment with 100 μM O^6-BG. Cell viability was measured using the Cell Titer Glo assay after 3 days of incubation and IC50 values were determined (Table 3).

U251 Resistant = experiment: AlamarBlue cell viability, U251 TMZ resistant; type: cell-based; settings: Homo sapiens, U-251; 72 hours
Method: (§2) Cells were seeded in 96-well plates. The day after, cells were treated with various concentrations of temozolomide or TP3. Cell viability was measured by AlamarBlue™ cell viability reagent after 72 hours, considering the control level of cells to be 100%.

U87MG Parent (Sensitive) = experiment: AlamarBlue cell viability, U87MG parent (TMZ sensitive); type: cell-based; settings: Homo sapiens, U-87 MG; 72 hours
Method: as §2

[1] = Metabolic stability in mouse liver microsomes; type: in vitro ADME; settings: for microsomal CLint: mouse, liver microsomes
Method: Metabolic stability of the compounds was also determined in mouse liver microsomes at five time points over 60 minutes, using HPLC-MS. Liver microsomes, as vesicles of the hepatocyte endoplasmic reticulum, contain membrane phase I enzymes namely CYPs, flavine-containing monooxygenases (FMO), esterases, amidases, and epoxide hydrolases, and also the phase II enzymes such as UGTs. For the catalytic activity of both phase I and II enzymes, addition of exogenous cofactors such as NADPH for CYPs and FMO, and UDPGA/alamethicin for UGTs is necessary.

[2] = Aqueous chemical stability (HPLC-MS); type: physicochemical
Method: Detection of products of non-enzymatic cleavage (AIC-TMZ, AIC-TP3, AIC-TP5, and AIC-TP9) was performed (Table 4; FIGS. 5A-5D).

[3] = Pre-formulation testing: solubility, pH and stability in vehicles; type: physicochemical
Method: Two formulations for TP3 and TMZ were prepared (Tables 10 and 11). Pre-formulation testing was in volumes of 100 μl-250 μl, and should be confirmed with larger volumes. Mice were dosed at 20 mg/kg of TMZ and TP3 using formulation 2 orally and brain and plasma samples were collected at 0, 0.5, 1, 3, 6 and 12 h timepoints and the concentration was measured using LC-MS and calculate PK parameters using standard equation. The stability profile (FIGS. 9A and 9B) and release kinetics profiles (FIGS. 10A and 10B) were compared. Single dose oral brain to plasma pharmacokinetic parameters were determined with Formulation 2 (Table 12).

U87MG Resistant = experiment: AlamarBlue cell viability, U87MG TMZ resistant; type: cell-based; settings: Homo sapiens, U-87 MG; 72 hours
Method: as §2

U251 Parent (Sensitive) = experiment: AlamarBlue cell viability, U251 parent (TMZ sensitive); type: cell-based; settings: Homo sapiens, U-251; 72 hours
Method: as §2

T98G = experiment: cells; settings: Homo sapiens, 72 h
Method: as §1
(§3) Activity of TP-RGD was assessed in glioma cell cultures, as described in Example 11.

U251 = experiment: cells; settings: Homo sapiens, U-251, 72 h
Method: as §1, §3

U87 = experiment: cells; settings: Homo sapiens, U-87 MG, 72 h
Method: as §1, §3

[4] = Caco-2, without verapamil, read-out: Efflux Ratio BA/AB p-gp Inhibitor (−)
[5] = read-out: Intrinsic clearance (Clint)
[6] = 2.0 mg/mL in 10% DMA + 10% Tween 80 + 15% PEG 400 + 15% PG + 50% of 15% (w/v) Captisol
[7] = 2.0 mg/mL in 10% DMA + 10% Tween 80 + 15% PEG 400 + 15% PG + 50% of 25% (w/v) Captisol
[8] = 2.0 mg/mL in 10% DMA + 15% Solutol HS15 + 10% PEG 400 + 10% PG + 55% of 15% (w/v) Captisol
[9] = 4.0 mg/mL in 5% DMA + 10% Tween 80 + 10% PEG 400 + 10% PG + 65% of 50% (w/v) Captisol
[10] = 4.0 mg/mL in 10% DMA + 10% Tween 80 + 10% PEG 400 + 10% PG + 60% of 50% (w/v) Captisol

SMILES: CCCCCCNC(=O)c1ncn2c(=O)n(C)nnc12 [TP3, N-hexyl-3-methyl-4-oxo-3,4-dihydroimidazo[5,1-d][1,2,3,5]tetrazine-8-carboxamide]
efflux ratio (P-gp; [4]): 0.6
Papp A→B (P-gp; Caco-2, without verapamil): 30.7 ×10⁻⁶ cm/s
Papp B→A (P-gp; Caco-2, without verapamil): 17 ×10⁻⁶ cm/s
IC50 (GBM8): 2 µM
IC50 (T98G cells; read-out: IC50 With O^6-BG pretreatment): 675 µM
IC50 (T98G cells; read-out: IC50 Without O^6-BG pretreatment): 1050 µM
IC50 (U251 Resistant): 63 µM
IC50 (U87MG Parent (Sensitive)): 250 µM
microsomal CLint ([1]; read-out: Clearance Classification (Low <8.6; High >48)): > 48 µL/min/mg
microsomal CLint [1, 5]: 358 µL/min/mg
% remaining (1 h) With co-factors [1]: 0%
% remaining (1 h) Without co-factors [1]: 80%
half-life at 1 μM ([2]; 0.1 M phosphate buffer pH 7.0): 119 min
half-life at 1 μM ([2]; 0.1 M phosphate buffer pH 8.0): 39 min
half-life at 1 μM ([2]; PBS pH 7.4): 62 min
Remarks (solubility) ([3]; 2.0 mg/mL in 5% DMA + 10% Tween 80 + 10% PEG 400 + 10% PG + 65% of 15% (w/v) Captisol): Not Soluble
Remarks (solubility) ([3]; 2.0 mg/mL in 10% DMA + 10% Tween 80 + 10% PEG 400 + 10% PG + 60% Normal saline): Not Soluble
pH ([3]; 2.0 mg/mL in 10% DMA + 10% Tween 80 + 10% PEG 400 + 10% PG + 60% of 15% (w/v) Captisol (100 μL)): ~6
Remarks (solubility) ([3]; 2.0 mg/mL in 10% DMA + 10% Tween 80 + 10% PEG 400 + 10% PG + 60% of 15% (w/v) Captisol (100 μL, from 20 mg/mL DMA stock)): Soluble
Remarks (solubility) ([3]; 2.0 mg/mL in 10% DMA + 10% Tween 80 + 10% PEG 400 + 10% PG + 60% of 15% (w/v) Captisol (250 μL)): Not Soluble
Remarks (solubility) ([3]; 2.0 mg/mL in 10% DMA + 10% Tween 80 + 10% PEG 400 + 10% PG + 60% of 15% (w/v) HPβCD): Not Soluble
Remarks (solubility) [3, 6]: Soluble
pH [3, 6]: ~6
Remarks (solubility) [3, 7]: Soluble
pH [3, 7]: ~6
Remarks (solubility) [3, 8]: Soluble
Remarks (solubility) [3, 9]: Soluble
pH [3, 9]: ~6
Remarks (solubility) ([3]; 4.0 mg/mL in 5% DMA + 10% Tween 80 + 10% PEG 400 + 10% PG + 65% of 50% (w/v) HPβCD): Not Soluble
Remarks (solubility) ([3]; 4.0 mg/mL in 10% DMA + 5% Tween 80 + 15% PEG 400 + 15% PG + 50% of 25% (w/v) Captisol): Not Soluble
Remarks (solubility) ([3]; 4.0 mg/mL in 10% DMA + 5% Tween 80 + 85% Normal saline): Not Soluble
Remarks (solubility) ([3]; 4.0 mg/mL in 10% DMA + 10% Tween 80 + 10% PEG 400 + 10% PG + 60% Normal saline): Not Soluble
Remarks (solubility) [3, 10]: Soluble
pH [3, 10]: ~6
Remarks (solubility) ([3]; 4.00 mg/mL in 25% of DMSO + 75% Normal Saline): Not Soluble
Stability (0-4 h) ([3]; Formulation 2, 2 mg/ml): Stable
pH ([3]; Formulation 2, 2 mg/ml): 4.81
Stability (0-4 h) ([3]; Formulation 3, 2 mg/ml): Stable
pH ([3]; Formulation 3, 2 mg/ml): 5.66
IC50 (U87MG Resistant): 280 µM
IC50 (U251 Parent (Sensitive)): 71 µM
IC50 (T98G; read-out: IC50, 72 h): 1260 µM
IC50 (U251; read-out: IC50, 72 h): 397 µM
IC50 (U87; read-out: IC50, 72 h): 399 µM

efflux ratio (P-gp; Caco-2, Caco-2 permeability, P-gp efflux ratio, Table 15, read-out: Efflux Ratio): 1.04
efflux ratio (P-gp; [4]): 1
Papp A→B (P-gp; Caco-2, without verapamil): 20.2 ×10⁻⁶ cm/s
Papp B→A (P-gp; Caco-2, without verapamil): 21 ×10⁻⁶ cm/s
IC50 (U251 Resistant): 180 µM
IC50 (U87MG Parent (Sensitive)): 310 µM
Clearance Classification (Low <8.6; High >48) [1]: Moderate
microsomal CLint [1, 5]: 15 µL/min/mg
% remaining (1 h) With co-factors [1]: 65%
% remaining (1 h) Without co-factors [1]: 72%
half-life at 1 μM ([2]; 0.1 M phosphate buffer pH 8.0): 31 min
half-life at 1 μM ([2]; PBS pH 7.4): 59 min
Remarks (solubility) [3, 8]: Soluble
Stability (0-4 h) ([3]; Formulation 2, 2 mg/ml): Stable
Stability (0-4 h) ([3]; Formulation 3, 2 mg/ml): Stable
IC50 (U87MG Resistant): > 1000 µM
IC50 (U251 Parent (Sensitive)): 70 µM
IC50 (T98G; read-out: IC50, 72 h, T98G, MGMT +++, Table 14): > 600 µM
IC50 (T98G; read-out: IC50, 72 h, T98G, MGMT +, Table 2): 1140 µM
IC50 (U251; read-out: IC50, 72 h, U251, MGMT −, Table 2): 898 µM
IC50 (U251; read-out: IC50, 72 h, U251, MGMT −, Table 14): 383 µM
IC50 (U87; read-out: IC50, 72 h, U87, MGMT −, Table 2): 208 µM
IC50 (U87; read-out: IC50, 72 h, U87MG, MGMT −, Table 14): 440 µM
SMILES: Cn1nnc2c(C(N)=O)ncn2c1=O [TMZ, temozolomide]
IC50 (GBM8; GBM8, MGMT −, Table 2): 45 µM
IC50 (T98G cells; 5-6 h pretreatment with 100 μM O6-BG, 3 days, read-out: IC50 With O^6-BG pretreatment): > 1000 µM
IC50 (T98G cells; 3 days, read-out: IC50 Without O^6-BG pretreatment): > 1000 µM
